Experimental data published in patent publication US5190961A, “Thiourea derivatives and antimicrobial agent and antulcer agent containing the same” (Terumo Kabushiki Kaisha, priority 1990, dated 1993).
In brackets after ≈: the same amount, converted by molar mass.

Experiments:
[1] = system: peptic ulcer induced by water immersion restraint stress; assay: Inhibitory action against the peptic ulcer induced by water immersion restraint stress; format: in vivo; details: Rattus norvegicus; SD male rats, 32 mg/kg oral, water immersion restraint stress 23° C., 7 hours; read-out: Inhibitory action against stress peptic ulcer, Percent inhibition of p.u. formation
Procedure: (1) Inhibitory action against the peptic ulcer induced by water immersion restraint stress
(§1) SD male rats (weighing 200-300 g) were fasted for 24 hours before oral administration of a thiourea derivative of the invention at a dose of 32 mg/kg bodyweight. One hour later, the animal was put in a stress cage and loaded with water immersion restraint stress in a water bath at 23° C. Seven hours after loading with the stress, the rate was sacrificed with ether, and the stomach was excised and treated with formalin. Area (mm^2 ) of the lesions developed in the glandular stomach area was then measured. Results were expressed in sum of the lesions per animal which was referred to as peptic ulcer index.
(§2) It was confirmed that the thiourea derivatives of the invention not shown in the table also have a similar antiulcer activity.
Percent inhibition of the peptic ulcer formation (%) as shown in the table was calculated according to the following equation: [formula]

ethanol peptic ulcer = assay: Inhibitory action against ethanol peptic ulcer; format: in vivo; details: Rattus norvegicus; SD male rats, 32 mg/kg oral, 1 hour before ethanol 0.5 ml/100 g; read-out: Inhibitory action against ethanol peptic ulcer, Percent inhibition of p.u. formation
Procedure: (2) Inhibitory action against ethanol peptic ulcer
as §1, with “ethanol” for “the animal”, “orally given” for “put”, “volume of 0.5 ml/100 g bodyweight. One hour after treating” for “stress cage and loaded”, “ethanol,” for “water immersion restraint stress in a water bath at 23° C. Seven hours after loading with”, “rat” for “stress, the rate”, “(mm^2)” for “(mm^2 )”
as §2
Percent inhibition of the peptic ulcer formation (%) as shown in the table was calculated according to the same equation as mentioned above.

Helicobacter pylori = assay: Antimicrobial activity against Helicobacter pylori (MIC); format: cell-based, Helicobacter pylori strain NCTC 11916; details: NCTC11916, strain NCTC 11916, twofold dilution, 37° C., 3-5 days, O2 about 5%
Procedure: (3) Antimicrobial activity against Helicobacter pylori
Antimicrobial activity of the thiourea derivatives according to the invention against Helicobacter pylori (or Campylobacter pylori) was evaluated by employing strain NCTC 11916 as a Helicobacter test organism and determining MIC (minimum inhibitory concentration) for the strain with the thiourea derivative.
The Helicobacter pylori was pre-incubated in a plate medium for 3-5 days. The medium was prepared by dissolving 38 g of a Mueller-Hinton medium (manufactured by Difco) in an appropriate amount of distilled water, sterilizing the solution in an autoclave, adding to the solution 50 ml of a horse hemolysis solution (manufactured by Nippon Seibutu Zairyou Center: Horse defibrinized blood, hemolyzed by a lyophilization treatment) and 2 ml of Skirrow, a Campylobacter selective supplement (manufactured by OXOID) containing vancomycin (5 mg), trimethoprim (2.5 mg) and polymyxin B (1250 IU) per vial (2 ml), and further an appropriate amount of distilled water to a volume of 1L in total and expanding and solidifying the solution on a dish. These antibiotics were contained for inhibition of the growth of microorganism other than Helicobacter pylori. The Helicobacter pylori pre-incubated under slightly aerobic conditions (an O2 concentration of about 5%) at 37° C. for 3-5 days was suspended in a physiological saline solution in a concentration of approximately 10^8 organisms/ml. Approximately 10-20 μl of the suspension was inoculated on a medium for MIC measurement in cross streaks. […] The DMSO solution was formed by the twofold dilution method. As in the pre-incubation, the Helicobacter pylori was cultured under slightly aerobic conditions at 37° C. for 3-5 days. After completion of the culture, growth of the microoranisms on the streaks was visually determined. The minimum concentration of the thiourea derivative in which no growth was observed was taken as MIC.
It was confirmed that the thiourea derivatives of the invention not shown in the table also have a similar antimicrobial activity.

Row | SMILES | MIC (Helicobacter pylori) [µg/mL] | inhibition in vivo at 32 mg/kg [1] [%] | inhibition in vivo at 32 mg/kg (ethanol peptic ulcer) [%]
1 | Cc1cc(C)cc(NC(=S)NCCCC(=O)NCCCOc2cccc(CN3CCCCC3)c2)c1 [Example 11, 1-[3-[N-[3-[3-(piperidinomethyl)phenoxy]propyl]carbamoyl]propyl]-3-(3,5-dimethylphenyl)thiourea] | 6.25 (≈ 12.6 µM) | 85.5 | 92.8
2 | O=C(CCCNC(=S)Nc1ccccc1)NCCCOc1cccc(CN2CCCC2)c1 [Example 9, 1-[3-[N-[3-[3-(pyrrolidinomethyl)phenoxy]propyl]carbamoyl]propyl]-3-phenylthiourea] | 6.25 (≈ 13.7 µM) | 58.6 | 77.9
3 | Cc1ccccc1NC(=S)NCCCC(=O)NCCCOc1cccc(CN2CCCCC2)c1 [Example 10, 1-[3-[N-[3-[3-(piperidinomethyl)phenoxyl]propyl]carbamoyl]propyl]-3-(O-methylphenyl)thiourea] | 6.25 (≈ 12.9 µM) | 82.2 | 94.2
4 | O=C(CCCNC(=S)NC1CCCCC1)NCCCOc1cccc(CN2CCCCC2)c1 [Example 5, 1-[3-[N-[3-[3-(piperidinomethyl)phenoxy]propyl]carbamoyl]propyl]-3-cyclohexylthiourea] | 6.25 (≈ 13.2 µM) | 70.5 | 82.3
5 | O=C(CCCNC(=S)Nc1cccnc1)NCCCOc1cccc(CN2CCCCC2)c1 [Example 8] | 12.5 (≈ 26.6 µM) | 82.2 | 65
6 | CNC(=S)NCCCC(=O)NCCCOc1cccc(CN2CCCCC2)c1 [Example 1, 1-[3-[N-[3-[3-(piperidinomethyl)phenoxy]propyl]carbamoyl]propyl]-3-methylthiourea] | 6.25 (≈ 15.4 µM) | 92.1 | 51.4
7 | CC(C)c1ccc(NC(=S)NCCCC(=O)NCCCOc2cccc(CN3CCCCC3)c2)cc1 [Example 13, 1-[3-[N-[3-[3-(piperidinomethyl)phenoxy]propyl]carbamoyl]propyl]-3-(p-isopropylphenyl)thiourea] | 6.25 (≈ 12.2 µM) | 77.3 | 90.2

Further lines, with some results ahead:

Row | MIC (Helicobacter pylori) [µg/mL] | SMILES | inhibition in vivo at 32 mg/kg [1] [%] | inhibition in vivo at 32 mg/kg (ethanol peptic ulcer) [%]
8 | 6.25 (≈ 12.5 µM) | COc1ccccc1NC(=S)NCCCC(=O)NCCCOc1cccc(CN2CCCCC2)c1 [Example 14, 1-[3-[N-[3-[3-(piperidinomethyl)phenoxy]propyl]-carbamoyl]propyl]-3-(O-methoxyphenyl)thiourea] | 91.2 | 94.3
9 | 12.5 (≈ 25.3 µM) | N#Cc1cccc(NC(=S)NCCCC(=O)NCCCOc2cccc(CN3CCCCC3)c2)c1 [Example 20, 1-[3-[N-[3-[3-(piperidinomethyl)phenoxy]propyl]carbamoyl]propyl]-3-(3-cyanophenyl)thiourea] | 70.2 | 83.5
10 | 6.25 (≈ 11.6 µM) | CCCCOc1ccccc1NC(=S)NCCCC(=O)NCCCOc1cccc(CN2CCCCC2)c1 [Example 16, 1-[3-[N-[3-[3-(piperidinomethyl)phenoxy]propyl]carbamoyl]propyl]-3-(O-n-buthoxyphenyl)thiourea] | 71.7 | 93.3
11 | 6.25 (≈ 12.2 µM) | O=C(CCCNC(=S)Nc1ccccc1[N+](=O)[O-])NCCCOc1cccc(CN2CCCCC2)c1 [Example 23, 1-[3-[N-[3-[3-(piperidinomethyl)phenoxy]propyl]carbamoyl]propyl]-3-(O-nitrophenyl)thiourea] | 76.4 | 72.3
12 | 6.25 (≈ 12.8 µM) | O=C(CCCNC(=S)NCc1cccs1)NCCCOc1cccc(CN2CCCCC2)c1 [Example 27, 1-[3-[N-[3-[3-(piperidinomethyl)phenoxy]propyl]carbamoyl]propyl]-3-(2-thienylmethyl)thiourea] | 72.5 | 88.2
13 | 6.25 (≈ 12.5 µM) | COc1cccc(NC(=S)NCCCC(=O)NCCCOc2cccc(CN3CCCCC3)c2)c1 [Example 15, 1-[3-[N-[3-[3-(piperidinomethyl)phenoxy]propyl]carbamoyl]propyl]-3-(3-methoxyphenyl)thiourea] | 78.3 | 92.1
14 | 12.5 (≈ 23.6 µM) | COCOc1ccccc1NC(=S)NCCCC(=O)NCCCOc1cccc(CN2CCCCC2)c1 [Example 24, 1-[3-[N-[3-[3-(piperidinomethyl)phenoxy]propyl]carbamoyl]propyl]-3-(2-methoxymethoxyphenyl)thiourea] | 60.3 | 70.3
15 | 6.25 (≈ 11.6 µM) | O=C(CCCNC(=S)Nc1ccccc1C(F)(F)F)NCCCOc1cccc(CN2CCCCC2)c1 [Example 22, 1-[3-[N-[3-[3-(piperidinomethyl)phenoxy]propyl]carbamoyl]propyl]-3-(2-trifluoromethylphenyl)thiourea] | 83.3 | 76.4
